Assays:
769-P (Kidney Carcinoma) = experiment: Bliss excess, mean over the matrix (fraction); higher = more synergy
In short: (§1)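 Cell lines grown in DMEM/F12 or RPMI with 10% FBS were plated in 1536-well plates and held 24 hours at 37°C, 5% CO2 before 72 hours of exposure to two-drug dose matrices, with DMSO typically at 0.2%. CellTiter-Glo 2.0 luminescence gave viability, which was converted to inhibition. Vehicle wells were set to 0 and blank wells to 1. Combination Emax is the second-highest inhibition in the matrix, and Bliss excess is the observed combination effect minus the expected EA + EB − EA·EB, where EA and EB are the single-agent effects.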

[1] = test system: DMS-53 (Small Cell Lung Carcinoma); experiment: as above
In short: as §1

[2] = test system: DU-4475 (Breast Carcinoma); experiment: as above
In short: as §1

[3] = test system: JHU-022 (Oral Cavity Carcinoma); experiment: as above
In short: as §1

[4] = test system: LU-165 (Small Cell Lung Carcinoma); experiment: as above
In short: as §1

[5] = test system: MDA-MB-436 (Breast Carcinoma); experiment: as above
In short: as §1

MKN1 (Gastric Carcinoma) [6] = experiment: as above
In short: as §1

NB13 (Neuroblastoma) = experiment: as above
In short: as §1

[7] = test system: NCI-H441 (Lung Adenocarcinoma); experiment: as above
In short: as §1

[8] = test system: NCI-H841 (Small Cell Lung Carcinoma); experiment: as above
In short: as §1

[9] = test system: SW620 (Colorectal Carcinoma); experiment: as above
In short: as §1

WM1552C (Melanoma) = experiment: as above
In short: as §1

MKN1 (Gastric Carcinoma) [10] = experiment: combination Emax (second highest fraction inhibited in the dose matrix, 72 h); higher = more inhibition; extreme values may be limits of the assay
In short: as §1

[11] = test system: NCI-H841 (Small Cell Lung Carcinoma); experiment: as above
In short: as §1
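Wherever Bliss excess, mean over the matrix is given: after 72 h of two-drug dosing.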

Row | SMILES | Bliss excess (769-P (Kidney Carcinoma)) | Bliss excess [1] | Bliss excess [2] | Bliss excess [3] | Bliss excess [4] | Bliss excess [5] | Bliss excess (MKN1 (Gastric Carcinoma) [6]) | Bliss excess (NB13 (Neuroblastoma)) | Bliss excess [7] | Bliss excess [8] | Bliss excess [9] | Bliss excess (WM1552C (Melanoma)) | combination Emax (MKN1 (Gastric Carcinoma) [10]) | combination Emax [11]
1 | Cn1cnc2c(F)c(Nc3ccc(Br)cc3Cl)c(C(=O)NOCCO)cc21 [Selumetinib] + CCN(CCO)CCCOc1ccc2c(Nc3cc(CC(=O)Nc4cccc(F)c4)[nH]n3)ncnc2c1 [AZD2811] (first compound max 10 µM, 7x7, partner max 1 µM) | -0.0062 | -0.0629 | 0.0351 | 0.0079 | -0.0377 | -0.006 | 0.002 | -0.0829 | -0.0565 | -0.0341 | 0.0738 | -0.0694 | 0.538 | 0.332
2 | Cn1cnc2c(F)c(Nc3ccc(Br)cc3Cl)c(C(=O)NOCCO)cc21 [Selumetinib] + C[C@@H]1COCCN1C2=NC(=NC(=C2)C3(CC3)[S@](=N)(=O)C)C4=C5C=CNC5=NC=C4 [AZD6738] (first compound max 10 µM, 7x7, partner max 10 µM) | -0.0122 | -0.0272 | -0.0103 | -0.0175 | -0.0284 | -0.0064 | 0.0183 | -0.0446 | 0.0498 | -0.0212 | 0.0587 | -0.0591 | 0.782 | 0.389
3 | CN(C)CCCOc1ccc(-c2ccc3ncc4c(c3c2)n(C2CCOCC2)c(=O)n4C)cn1 [AZD0156] + O=C(c1cc(Cc2n[nH]c(=O)c3ccccc23)ccc1F)N1CCN(C(=O)C2CC2)CC1 [Olaparib] (first compound max 3 µM, partner max 3 µM) | -0.0148 | -0.0283 | 0.117 | -0.0079 | 0.0093 | -0.0232 | 0.0242 | – | -0.0003 | -0.0483 | 0.0953 | 0.0213 | 0.307 | 0.208
4 | COc1nnc2ccc(N3CCC(c4ccc(OCCN5CCN(C)C(=O)[C@H]5C)cc4)CC3)nn12 [AZD5153] + C[C@@H]1COCCN1C2=NC(=NC(=C2)C3(CC3)[S@](=N)(=O)C)C4=C5C=CNC5=NC=C4 [AZD6738] (first compound max 1 µM, 7x7, partner max 10 µM) | 0.0196 | 0.037 | 0.0294 | -0.0134 | -0.0048 | -0.0104 | 0.0483 | -0.0149 | 0.0192 | 0.0202 | 0.0276 | -0.0783 | 0.936 | 0.73
5 | CC(=O)c1c(C)c2cnc(Nc3ccc(N4CCNCC4)cn3)nc2n(C2CCCC2)c1=O [Palbociclib] + Cn1cnc2c(F)c(Nc3ccc(Br)cc3Cl)c(C(=O)NOCCO)cc21 [Selumetinib] (first compound max 10 µM, 7x7, partner max 10 µM) | 0.039 | -0.0207 | -0.0446 | 0.0858 | -0.0518 | 0.0157 | -0.0001 | -0.0391 | 0.0506 | -0.0352 | 0.0191 | -0.0078 | 0.332 | 0.16
6 | CC(=O)c1c(C)c2cnc(Nc3ccc(N4CCNCC4)cn3)nc2n(C2CCCC2)c1=O [Palbociclib] + Cc1c2c(nn1C)CSCc1cc(n(C)n1)CSc1cc(c3ccccc3c1)OCCCc1c(C(=O)O)n(C)c3c-2c(Cl)ccc13 [AZD5991] (first compound max 10 µM, 7x7, partner max 1 µM) | -0.004 | 0.044 | 0.0238 | -0.0971 | -0.0347 | -0.0243 | -0.0238 | 0.0041 | -0.0362 | -0.0265 | -0.0292 | -0.0565 | 0.313 | 0.289
7 | C=CCn1c(=O)c2cnc(Nc3ccc(N4CCN(C)CC4)cc3)nc2n1-c1cccc(C(C)(C)O)n1 [AZD1775] + C1CN(CCC1(C(=O)N[C@@H](CCO)C2=CC=C(C=C2)Cl)N)C3=NC=NC4=C3C=CN4 [Capivasertib] (first compound max 3 µM, partner max 3 µM) | -0.0475 | -0.007 | 0.0203 | -0.022 | -0.117 | 0.0064 | -0.0236 | – | -0.0427 | -0.0788 | -0.0402 | 0.0306 | 0.821 | 0.676
8 | CS(=O)(=O)CCNCc1ccc(-c2ccc3ncnc(Nc4ccc(OCc5cccc(F)c5)c(Cl)c4)c3c2)o1 [Lapatinib] + NC1(c2ccc(-c3nc4ccn5c(=O)[nH]nc5c4cc3-c3ccccc3)cc2)CCC1 [MK-2206] (first compound max 10 µM, 7x7, partner max 10 µM) | 0.0372 | 0.0185 | 0.0428 | -0.0585 | -0.0522 | 0.0323 | 0.0099 | -0.0348 | -0.0033 | -0.0246 | -0.0275 | -0.0297 | 0.925 | 0.17
9 | NC1(C(=O)N[C@@H](CCO)c2ccc(Cl)cc2)CCN(c2ncnc3[nH]ccc23)CC1 [Capivasertib] + C[C@@H]1COCCN1C2=NC(=NC(=C2)C3(CC3)[S@](=N)(=O)C)C4=C5C=CNC5=NC=C4 [AZD6738] (first compound max 10 µM, 7x7, partner max 10 µM) | -0.0448 | -0.0279 | 0.0226 | -0.041 | -0.01 | -0.0473 | -0.0639 | -0.0823 | -0.0011 | -0.0622 | -0.0475 | -0.062 | 0.807 | 0.457
10 | Cn1cnc2c(F)c(Nc3ccc(Br)cc3Cl)c(C(=O)NOCCO)cc21 [Selumetinib] + CC(C)n1c(=O)n(C)c2cnc3cc(F)c(-c4ccc(OCCCN5CCCCC5)nc4)cc3c21 [AZD1390] (first compound max 10 µM, 7x7, partner max 0.3 µM) | 0.0125 | -0.0267 | -0.0112 | 0.02 | -0.03 | -0.0394 | -0.0173 | -0.0532 | -0.0394 | -0.0529 | -0.0102 | -0.0102 | 0.182 | 0.0728
11 | C[C@@H](Oc1cc(-c2cnn(C3CCNCC3)c2)cnc1N)c1c(Cl)ccc(F)c1Cl [Crizotinib] + CC1=C(C(=CC=C1)Cl)NC(=O)C2=CN=C(S2)NC3=CC(=NC(=N3)C)N4CCN(CC4)CCO [Dasatinib] (first compound max 10 µM, 7x7, partner max 2 µM) | -0.0405 | – | – | -0.0186 | -0.0337 | -0.0418 | 0.0586 | -0.06 | 0.0104 | -0.0089 | 0.0171 | 0.0392 | 0.866 | 0.301
12 | CS(=O)(=O)CCNCc1ccc(-c2ccc3ncnc(Nc4ccc(OCc5cccc(F)c5)c(Cl)c4)c3c2)o1 [Lapatinib] + C[C@@H](Oc1cc(-c2cnn(C3CCNCC3)c2)cnc1N)c1c(Cl)ccc(F)c1Cl [Crizotinib] (first compound max 10 µM, 7x7, partner max 10 µM) | -0.0331 | -0.0205 | -0.0077 | -0.0541 | -0.0858 | -0.0237 | 0.0038 | -0.0778 | -0.0412 | -0.0378 | -0.0736 | -0.0534 | 0.922 | 0.356
13 | COc1nnc2ccc(N3CCC(c4ccc(OCCN5CCN(C)C(=O)[C@H]5C)cc4)CC3)nn12 [AZD5153] + Cc1c2c(nn1C)CSCc1cc(n(C)n1)CSc1cc(c3ccccc3c1)OCCCc1c(C(=O)O)n(C)c3c-2c(Cl)ccc13 [AZD5991] (first compound max 1 µM, 7x7, partner max 1 µM) | -0.0716 | 0.007 | 0.0617 | -0.0703 | -0.0173 | -0.0167 | 0.0194 | 0.0066 | -0.0179 | -0.0119 | -0.0457 | -0.0694 | 0.866 | 0.565
14 | CS(=O)(=O)CCNCc1ccc(-c2ccc3ncnc(Nc4ccc(OCc5cccc(F)c5)c(Cl)c4)c3c2)o1 [Lapatinib] + Cn1cnc2c(F)c(Nc3ccc(Br)cc3Cl)c(C(=O)NOCCO)cc21 [Selumetinib] (first compound max 10 µM, 7x7, partner max 10 µM) | 0.0368 | – | – | -0.0636 | -0.0543 | -0.0587 | -0.002 | -0.0311 | -0.0353 | 0.0251 | -0.0193 | -0.0077 | 0.596 | 0.303
15 | C=CCn1c(=O)c2cnc(Nc3ccc(N4CCN(C)CC4)cc3)nc2n1-c1cccc(C(C)(C)O)n1 [AZD1775] + CCc1c2c(nc3ccc(O)cc13)-c1cc3c(c(=O)n1C2)COC(=O)[C@]3(O)CC [SN-38] (first compound max 1 µM, partner max 0.3 µM) | -0.0084 | – | – | -0.0638 | -0.0771 | -0.0545 | -0.0056 | -0.0592 | -0.0906 | -0.0421 | -0.0563 | -0.0628 | 0.869 | 0.66

From the supplement of paper PMC11061612
